In patent US20090124672A1 (priority 2007, published 2009):

Target: T1, hALDH2 (recombinant human mitochondria ALDH) (Homo sapiens, UniProt P05091)
T1 sequence (P05091 18-517): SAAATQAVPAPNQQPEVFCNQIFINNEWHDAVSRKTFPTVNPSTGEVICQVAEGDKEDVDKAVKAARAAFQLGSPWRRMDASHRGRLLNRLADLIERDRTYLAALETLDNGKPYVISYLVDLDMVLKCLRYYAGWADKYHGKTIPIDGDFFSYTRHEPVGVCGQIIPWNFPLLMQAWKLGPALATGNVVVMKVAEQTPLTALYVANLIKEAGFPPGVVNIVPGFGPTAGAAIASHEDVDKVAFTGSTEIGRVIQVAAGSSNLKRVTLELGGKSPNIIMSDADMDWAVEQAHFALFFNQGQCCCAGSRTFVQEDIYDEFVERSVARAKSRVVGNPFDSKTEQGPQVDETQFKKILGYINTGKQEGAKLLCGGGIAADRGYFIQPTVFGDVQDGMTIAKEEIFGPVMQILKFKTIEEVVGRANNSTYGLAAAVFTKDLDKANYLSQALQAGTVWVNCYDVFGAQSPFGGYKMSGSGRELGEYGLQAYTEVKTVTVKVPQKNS
Experiment: ALDH2 inhibition assay (NADH formation, formaldehyde substrate)
Assay type: biochemical
Conditions: for hALDH2 inhibition (IC50 hALDH2 column) / inhibition at 1 µM: at 1 μM; for inhibition at 1 µM: read-out: hALDH2 inhibition (IC50 hALDH2 column)
Method: ALDH2 inhibition assays were performed in sodium phosphate buffer (50 mM, pH 7.4) containing 1.2 mM NAD^+ (Sigma N7004), 1 nM hALDH2 (recombinant human mitochondria ALDH), various concentrations of test compounds (from 0.03 nM to 1000 nM), and 0.15 mM freshly prepared formaldehyde solution (Ladd Research 20295). Reactions were initiated by the addition of formaldehyde and rates were recorded by monitoring NADH formation in a temperature controlled (25° C.) FluoroMax-2 Fluorimeter with excitation and emission wavelengths set at 340 and 460 nm, respectively. […] Normally, IC50 values were determined by fitting concentration-inhibition data to sigmoidal dose-response curves with two-floating parameters: IC50 and Hill coefficient. When tight binding situation was suspected, apparent Ki values were estimated by fitting dose-response data to Morrison's equation [Methods in Enzymology 63, 437-467, 1979].

Question: With O=c1c(-c2ccc(O)cc2)coc2cc(OCc3cc(-c4ccc(Cl)cc4)on3)ccc12 [PT-95, 7-{[5-(4-chlorophenyl)isoxazol-3-yl]methoxy}-3-(4-hydroxyphenyl)chromen-4-one] as the molecule, how does the “hALDH2 inhibition (IC50 hALDH2 column)” value read?
Answer: The value was 57%.

Question: And the inhibition at 1 µM?
Answer: The inhibition at 1 µM was 57%.

Question: O=c1c(-c2ccc(OCc3ccc(C(F)(F)F)nc3)cc2)coc2cc(OCc3cncc(C(F)(F)F)c3)ccc12 [PT-46, 7-{[5-(trifluoromethyl)(3-pyridyl)]methoxy}-3-(4-{[6-(trifluoromethyl)(3-pyridyl)]methoxy}phenyl)chromen-4-one] was tested. Which inhibition at 1 µM did it give?
Answer: Its inhibition at 1 µM is 10%.

Question: Which IC50 does the source give for “7-{2-[4-(3-chlorophenyl)piperazinyl]ethoxy}-3-(4-hydroxyphenyl)chromen-4-one [PT-123]” here?
Answer: The IC50 was 11 nM.

Question: Which inhibition at 1 µM does the source give for COC(=O)c1cccc(COc2ccc3c(=O)c(-c4ccc(CO)cc4)coc3c2)c1 [PT-7, methyl 3-({3-[4-(hydroxymethyl)phenyl]-4-oxochromen-7-yloxy}methyl)benzoate] here?
Answer: The inhibition at 1 µM was 75%.

Question: With CCOC(=O)COc1ccc(-c2coc3cc(OCC(=O)OCC)ccc3c2=O)cc1 [PT-10, ethyl 2-(3-{4-[(ethoxycarbonyl)methoxy]phenyl}-4-oxochromen-7-yloxy)acetate] as the molecule, how does the inhibition at 1 µM read?
Answer: The inhibition at 1 µM was 60%.

Question: For N#Cc1cccc(COc2ccc3c(=O)c(-c4ccc(O)cc4)coc3c2)c1 [PT-25, 3-{[3-(4-hydroxyphenyl)-4-oxochromen-7-yloxy]methyl}benzenecarbonitrile], which IC50 is on record?
Answer: The IC50 was 4 nM.

Question: For O=c1c(-c2ccc(O)cc2)coc2cc(OCc3noc(-c4cc(C(F)(F)F)cc(C(F)(F)F)c4)n3)ccc12 [PT-39, 7-({5-[3,5-bis(trifluoromethyl)phenyl](1,2,4-oxadiazol-3-yl)}methoxy)-3-(4-hydroxyphenyl)chromen-4-one], which IC50 is on record?
Answer: The IC50 was 130 nM.

Question: With O=c1c(-c2ccc(O)cc2)coc2cc(OCc3nc(-c4cccc(C(F)(F)F)c4)no3)ccc12 [PT-115, 3-(4-hydroxyphenyl)-7-({3-[3-(trifluoromethyl)phenyl](1,2,4-oxadiazol-5-yl)}methoxy)chromen-4-one] as the molecule, how does the IC50 read?
Answer: Its IC50 is 38 nM.

Question: For O=c1c(-c2ccc(O)cc2)coc2cc(OCc3noc(-c4ccc(F)c(C(F)(F)F)c4)n3)ccc12 [PT-30, 7-({5-[4-fluoro-3-(trifluoromethyl)phenyl](1,2,4-oxadiazol-3-yl)}methoxy)-3-(4-hydroxyphenyl)chromen-4-one], which IC50 is on record?
Answer: The IC50 was 100 nM.

Question: Which “hALDH2 inhibition (IC50 hALDH2 column)” value does the source give for O=c1c(-c2cn[nH]c2)coc2cc(OCc3noc(-c4cc(F)cc(C(F)(F)F)c4)n3)ccc12 [PT-75, 7-({5-[3-fluoro-5-(trifluoromethyl)phenyl](1,2,4-oxadiazol-3-yl)}methoxy)-3-(5-hydropyrazol-4-yl)chromen-4-one] here?
Answer: Its value is 14%.

Question: How did the IC50 turn out when NC(=O)c1ccc(COc2ccc3c(=O)c(-c4ccc(O)cc4)coc3c2)cc1 [PT-37, 4-{[3-(4-hydroxyphenyl)-4-oxochromen-7-yloxy]methyl}benzamide] was run?
Answer: The IC50 was 380 nM.

Question: For CO/N=C(\N)c1ccc(-c2coc3cc(OCc4cccc(C(=O)OC)c4)ccc3c2=O)cc1 [PT-50, methyl 3-({3-[4-((1Z)-1-amino-2-methoxy-2-azavinyl)phenyl]-4-oxochromen-7-yloxy}methyl)benzoate], which inhibition at 1 µM is on record?
Answer: The inhibition at 1 µM was 47%.

Question: How did the IC50 turn out when O=c1c(-c2ccc(O)cc2)coc2cc(OCc3cc(-c4cc(C(F)(F)F)cc(C(F)(F)F)c4)on3)ccc12 [PT-62, 7-({5-[3,5-bis(trifluoromethyl)phenyl]isoxazol-3-yl}methoxy)-3-(4-hydroxyphenyl)chromen-4-one] was run?
Answer: Its IC50 is 72 nM.

Question: How did the IC50 turn out when “7-{3-[4-(4-chlorophenyl)pyrazolyl]propoxy}-3-(4-hydroxyphenyl)chromen-4-one [PT-106]” was run?
Answer: The IC50 was 110 nM.

Question: For CS(=O)(=O)Nc1ccc(-c2coc3cc(OCc4nc(-c5cc(F)cc(C(F)(F)F)c5)no4)ccc3c2=O)cc1 [PT-8, 7-({3-[5-fluoro-3-(trifluoromethyl)phenyl](1,2,4-oxadiazol-5-yl)}methoxy)-3-{4-[(methylsulfonyl)amino]phenyl}chromen-4-one], which inhibition at 1 µM is on record?
Answer: Its inhibition at 1 µM is 57%.

Question: With CCOC(=O)c1cnn(CCOc2ccc3c(=O)c(-c4ccc(O)cc4)coc3c2)c1 [PT-122, ethyl 1-{2-[3-(4-hydroxyphenyl)-4-oxochromen-7-yloxy]ethyl}pyrazole-4-carboxylate] as the molecule, how does the IC50 read?
Answer: The IC50 was 12 nM.

Question: Which IC50 does the source give for N#Cc1ccc(-c2coc3cc(OCc4cc(-c5cccc(C(F)(F)F)c5)no4)ccc3c2=O)cc1 [PT-69, 4-[4-oxo-7-({3-[3-(trifluoromethyl)phenyl]isoxazol-5-yl}methoxy)chromen-3-yl]benzenecarbonitrile] here?
Answer: The IC50 was 180 nM.

Question: How did the IC50 turn out when O=c1c(-c2ccc(O)cc2)coc2cc(OCc3cncc(C(F)(F)F)c3)ccc12 [PT-94, 3-(4-hydroxyphenyl)-7-{[5-(trifluoromethyl)(3-pyridyl)]methoxy}chromen-4-one] was run?
Answer: Its IC50 is 20 nM.

Question: For O=C(O)c1coc(COc2ccc3c(=O)c(-c4ccc(O)cc4)coc3c2)n1 [PT-102, 2-{[3-(4-hydroxyphenyl)-4-oxochromen-7-yloxy]methyl}-1,3-oxazole-4-carboxylic acid], which IC50 is on record?
Answer: Its IC50 is 16 nM.

Question: COc1ccc(-c2nc(COc3ccc4c(=O)c(-c5ccc(O)cc5)coc4c3)no2)cc1C(F)(F)F was tested. Which IC50 did it give?
Answer: The IC50 was 20 nM.

Question: Which IC50 does the source give for O=c1c(-c2ccc(OCc3ccccn3)cc2)coc2cc(OCc3ccccn3)ccc12 [PT-93, 7-(2-pyridylmethoxy)-3-[4-(2-pyridylmethoxy)phenyl]chromen-4-one] here?
Answer: Its IC50 is 17 nM.

Question: Which IC50 does the source give for CS(=O)(=O)Nc1ccc(-c2coc3cc(OCc4noc(-c5ccc(F)cc5)n4)ccc3c2=O)cc1 [PT-48, 7-{[5-(4-fluorophenyl)(1,2,4-oxadiazol-3-yl)]methoxy}-3-{4-[(methylsulfonyl)amino]-phenyl}chromen-4-one] here?
Answer: The IC50 was 140 nM.

Question: For O=c1c(-c2ccc(O)cc2)coc2cc(OCc3cc(F)cc(C(F)(F)F)c3)ccc12 [PT-28, 7-{[3-fluoro-5-(trifluoromethyl)phenyl]methoxy}-3-(4-hydroxyphenyl)chromen-4-one], which IC50 is on record?
Answer: Its IC50 is 58 nM.

Question: Which inhibition at 1 µM does the source give for Cc1ccc(S(=O)(=O)Nc2ccc(-c3coc4cc(OCc5sc(-c6ccc(C(F)(F)F)cc6)nc5C)ccc4c3=O)cc2)cc1 [PT-5, 3-(4-{[(4-methylphenyl)sulfonyl]amino}phenyl)-7-({4-methyl-2-[4-(trifluoromethyl)phenyl](1,3-thiazol-5-yl)}methoxy)chromen-4-one] here?
Answer: The inhibition at 1 µM was 0.19%.

Question: Which IC50 does the source give for O=c1c(-c2ccc(O)cc2)coc2cc(OCc3cnc(-c4ccc(C(F)(F)F)cc4)s3)ccc12 [PT-77, 3-(4-hydroxyphenyl)-7-({2-[4-(trifluoromethyl)phenyl](1,3-thiazol-5-yl)}methoxy)chromen-4-one] here?
Answer: Its IC50 is 122 nM.

Question: Which IC50 does the source give for Cc1nc(-c2ccc(C(F)(F)F)cc2)sc1COc1ccc2c(=O)c(-c3ccc(O)cc3)coc2c1 [PT-4, 3-(4-hydroxyphenyl)-7-({4-methyl-2-[4-(trifluoromethyl)phenyl](1,3-thiazol-5-yl)}methoxy)chromen-4-one] here?
Answer: The IC50 was 200 nM.

Question: Which IC50 does the source give for O=c1c(-c2ccc(O)cc2)coc2cc(OCc3noc(-c4ccccc4)n3)ccc12 [PT-24, 3-(4-hydroxyphenyl)-7-[(5-phenyl(1,2,4-oxadiazol-3-yl))methoxy]chromen-4-one] here?
Answer: Its IC50 is 160 nM.

Question: For CS(=O)(=O)Nc1ccc(-c2coc3cc(OCc4cnc(-c5ccc(C(F)(F)F)cc5)s4)ccc3c2=O)cc1 [PT-83, 3-{4-[(methylsulfonyl)amino]phenyl}-7-({2-[4-(trifluoromethyl)phenyl](1,3-thiazol-5-yl)}methoxy)chromen-4-one], which IC50 is on record?
Answer: Its IC50 is 25 nM.

Question: Which IC50 does the source give for CNC(=O)c1coc(COc2ccc3c(=O)c(-c4ccc(O)cc4)coc3c2)n1 [PT-118, (2-{[3-(4-hydroxyphenyl)-4-oxochromen-7-yloxy]methyl}(1,3-oxazol-4-yl))-N-methylcarboxamide] here?
Answer: Its IC50 is 23 nM.

Question: How did the IC50 turn out when O=C(O)c1cnc(COc2ccc3c(=O)c(-c4ccc(O)cc4)coc3c2)o1 [PT-49, 2-{[3-(4-hydroxyphenyl)-4-oxochromen-7-yloxy]methyl}-1,3-oxazole-5-carboxylic acid] was run?
Answer: Its IC50 is 16 nM.

Question: For O=c1c(-c2ccc(O)cc2)coc2cc(OCc3noc(-c4ccc(C(F)(F)F)cc4)n3)ccc12 [PT-38, 3-(4-hydroxyphenyl)-7-({5-[4-(trifluoromethyl)phenyl](1,2,4-oxadiazol-3-yl)}methoxy)chromen-4-one], which IC50 is on record?
Answer: The IC50 was 600 nM.

Question: How did the IC50 turn out when O=c1c(-c2ccc(O)cc2)coc2cc(OCc3coc(-c4cc(F)cc(C(F)(F)F)c4)n3)ccc12 [PT-13, 7-({2-[5-fluoro-3-(trifluoromethyl)phenyl](1,3-oxazol-4-yl)}methoxy)-3-(4-hydroxyphenyl)chromen-4-one] was run?
Answer: The IC50 was 20 nM.

Question: For O=c1c(-c2ccc(O)cc2)coc2cc(OCc3nnc(-c4cccnc4)o3)ccc12 [PT-110, 3-(4-hydroxyphenyl)-7-[(5-(3-pyridyl)(1,3,4-oxadiazol-2-yl))methoxy]chromen-4-one], which IC50 is on record?
Answer: Its IC50 is 7 nM.

Question: O=c1c(-c2ccc(O)cc2)coc2cc(OCc3nnc(-c4ccccc4Cl)o3)ccc12 [PT-80, 7-{[5-(2-chlorophenyl)(1,3,4-oxadiazol-2-yl)]methoxy}-3-(4-hydroxyphenyl)chromen-4-one] was tested. Which IC50 did it give?
Answer: Its IC50 is 4 nM.
